Measurements taken from patent publication US6352716B1, “Steroidal liposomes” (The Liposome Company Inc., priority 1984, dated 2002).
In brackets after ≈: the same amount, converted by molar mass. Like-named read-outs stand apart in the source and are kept apart here.

Columns and labels:
[1] = type: physicochemical; settings: arsenazo III 4.5 mM, buffer pH 7.3, 50-54 mg salt in 1 ml, MLVs washed three times
Protocol: The 2-amino-2-methyl-1,3-propanediol salt of cholesterol hemisuccinate (50 mg) was added to a 1 ml solution of arsenazo III (4.5 mM, final concentration) in 0.01 M 2-amino-2-methyl-1,3-propanediol-HCl (pH 7.3), 0.07 M KCl, 0.07 M NaCl. The suspension of CHS-MLVs was formed by mixing vortically with glass beads. The CHS-MLVs were pelleted by centrifugation at 10,000×g for 15 minutes, and the resulting pellet was washed three times as described in Section 6.1.1.
The 2-aminoethanol salt of cholesterol hemisuccinate (50 mg) was added to a 1 ml solution of arsenazo III (4.5 mM, final concentration) in 0.01 M 2-aminoethanol-HCl (pH 7.3), 0.07 M KCl, 0.07 M NaCl. The suspension of CHS-MLVs was formed by mixing vertically with glass beads. The CHS-MLVs were pelleted by centrifugation at 10,000×g for 15 minutes, and the resulting pellet was washed three times as described in Section 6.1.1.
The suspension of CHS-MLVs was formed by mixing vertically with glass beads. The CHS-MLVs were pelleted by centrifugation at 10,000×g for 15 minutes, and the resulting pellet was washed three times as described in Section 6.1.1.
The triethanolamine salt of cholesterol hemisuccinate (50 mg) was added to a 1 ml solution of arsenazo III (4.5 mM, final concentration) in 0.01 M triethanolamine-HCL (pH 7.3), 0.07 M KCl, 0.07 M NaCl. The suspension of CHS-MLVs was formed by mixing vortically with glass beads. The CHS-MLVs were pelleted by centrifugation at 10,000×g for 15 minutes, and the resulting pellet was washed three times as described in Section 6.1.1.

[2] = cited from earlier work
[3] = Entrapment of 3H-diazepam in sonicated CHS-SUVs; settings: Diazepam 5 mg/ml
[4] = type: physicochemical
Protocol: CHS-MLVs were prepared as described in Section 6.2 using 25 mg tris-salt CHS in 1.0 ml 0.01 M Tris-HCl (pH 7.4), 0.14 M NaCl buffer. The CHS-MLV preparation was sonicated to clarify to form sonicated CHS-SUVs and then either 5, 10, 15, 25, 30 or 166 mg BGH (Eli Lilly & Co., Indianapolis, Ind.) was added to separate aliquots of the sonicated CHS-SUV suspension. The suspensions were extensively mixed vortically, resulting in partitioning of the protein into the CHS-SUV bilayers. The sonicated CHS-SUV suspensions were visually observed for the presence of precipitate at 1, 2, and 21 days.
CHS-MLVs were prepared as described in Section 6.2 using 25 mg tris-salt CHS in 1.0 ml 0.01 M Tris-HCl (pH 7.4), 0.14 M Nacl buffer. The CHS-MLV preparation was sonicated to clarity to form sonicated CHS-SUVs and up to 47 mg zinc-insulin powder (Boving Pancreatic Insulin, Sigma Chemical Co., St. Louis, Mo.) was added to the CHS-SUV suspension. The suspension was extensively mixed vortically, resulting in partitioning of the insulin into the CHS-SUV bilayers. The sonicatd CHS-SUVs were visually observed for the presence of precipitate at 1, 2, and 21 days. […] Insulin entrapment occurs more rapidly at 37° C.
Small unilamellar vesicles were prepared as follows: 100 mg tylosin-base (Eli Lilly & Co., Indianapolis, Ind.) and 200 mg tris-salt CHS were mixed vertically in 4 ml phosphate buffered saline (pH 7.4). […]

[5] = Retention of 125I-human growth hormone in the hind limb after intramuscular injection; parameters: species or system Swiss-Webster mice; settings: mouse, in vivo
Protocol: A group of 12 female Swiss-Webster mice were injected intramuscularly in the hind limb with 0.5 ml of the CHS-MLV entrapped ^125I-HGH suspension. A control group of 12 mice were injected with 0.5 ml free ^125I-HGH in .01 M Tris-HCl, 0.14 M NaCl buffer. Each animal in both groups received approximately 35,000 cpm/animal. At periodic intervals post-injection, the mice were sacrificed, the hind limb dissected, and percent total radioactivity remaining was determined. […] Thus, when injected intramuscularly, the CHS-liposome entrapped drug is released in a sustained fashion.

Molecule: CC(C)CCC[C@@H](C)[C@H]1CC[C@H]2[C@@H]3CC=C4C[C@@H](OC(=O)CCC(=O)O)CC[C@]4(C)[C@H]3CC[C@]12C.CC(N)(CO)CO [2-amino-2-methyl-1,3-propanediol salt of cholesterol hemisuccinate]
- entrapment of arsenazo III (colour of washed pellet) [1]: red in color indicating entrapment of the arsenazo III

Molecule: CC(C)CCC[C@@H](C)[C@H]1CC[C@H]2[C@@H]3CC=C4C[C@@H](OC(=O)CCC(=O)O)CC[C@]4(C)[C@H]3CC[C@]12C.NCCO [2-aminoethanol salt of cholesterol hemisuccinate]
- entrapment of arsenazo III (colour of washed pellet) [1]: red in color indicating entrapment of the arsenazo III

Molecule: COc1ccc2c(c1)c(CC(=O)O)c(C)n2C(=O)c1ccc(Cl)cc1 [Indomethacin]
- solubility in water [2]: practically insoluble in water

Molecule: CC(C)CCC[C@@H](C)[C@H]1CC[C@H]2[C@@H]3CC=C4C[C@@H](OC(=O)CCC(=O)O)CC[C@]4(C)[C@H]3CC[C@]12C.NC(CO)(CO)CO [Tris-salt CHS, tris(hydroxymethyl)aminomethane salt of cholesteryl hemisuccinate]
- % 3H-Diazepam Entrapped ([3]; CHS 100 mg/ml): 100%
- % 3H-Diazepam Entrapped ([3]; CHS 200 mg/ml): 100%
- entrapment of arsenazo III (colour of washed pellet) [1]: red in color indicating entrapment of the arsenazo III

Molecule: CC[C@H]1OC(=O)C[C@@H](O)[C@H](C)[C@@H](O[C@@H]2O[C@H](C)[C@@H](O[C@H]3C[C@@](C)(O)[C@@H](O)[C@H](C)O3)[C@H](N(C)C)[C@H]2O)[C@@H](CC=O)C[C@@H](C)C(=O)/C=C/C(C)=C/[C@@H]1CO[C@@H]1O[C@H](C)[C@@H](O)[C@@H](OC)[C@H]1OC [Tylosin, reference compound]
- solubility in water ([2]; 25° C.): 5000 µg/mL (≈ 5.46 mM)
- precipitate formation (visual comparison) ([4]; 100 mg tylosin base in 4 ml: CHS-SUV supernatant versus suspension in water): A precipitate formed

Molecule: CC(C)CCCC(C)C1CCC2C3CC=C4CC(OC(=O)CCC(=O)O)CCC4(C)C3CCC12C.OCCN(CCO)CCO (stereo not drawn) [triethanolamine salt of cholesterol hemisuccinate]
- entrapment of arsenazo III (colour of washed pellet) [1]: red in color indicating entrapment of the arsenazo III

Molecule: Zinc-insulin: a polypeptide hormone; zinc-insulin powder, bovine pancreatic insulin from Sigma
- solubility in aqueous phases ([2]; pH 4.5): practically insoluble

Molecule: ^125I-HGH: free 125I-labelled human growth hormone in 0.01M Tris-HCl, 0.14M NaCl
- % Radioactivity Remaining in Limb ([5]; 3 h): 5%
- % Radioactivity Remaining in Limb ([5]; 24 h): 0.7%
- % Radioactivity Remaining in Limb ([5]; 72 h): 0.2%
- % Radioactivity Remaining in Limb ([5]; 168 h): 0.3%

B1: BGH: a simple protein composed of a single chain of approximately 191 amino acids (protein, UniProt P01246 27-217, looked up)
Somatotropin: AFPAMSLSGLFANAVLRAQHLHQLAADTFKEFERTYIPEGQRYSIQNTQVAFCFSETIPAPTGKNEAQQKSDLELLRISLLLIQSWLGPLQFLSRVFTNSLVFGTSDRVYEKLKDLEEGILALMRELEDGTPRAGQILKQTYDKFDTNMRSDDALLKNYGLLSCFRKDLHKTETYLRVMKCRRFGEASCAF
- presence of precipitate at 1, 2, and 21 days ([4]; 5-166 mg BGH added to sonicated CHS-SUVs (25 mg tris-salt CHS in 1.0 ml), room temperature): No precipitate was observed
